Laboratory results from patent US20240246968A1, “SMALL MOLECULE INHIBITORS OF KRAS G12C MUTANT” (Merck Sharp & Dohme LLC, priority 2021, published 2024).

Assays:
[1] = biological target: Gppcp-bound recombinant K-Ras4B G12C mutant protein (amino acids 1-169, C51S/C80L/C118S) (Homo sapiens, UniProt P01116, C118S/C51S/C80L/G12C); experiment: KRASG12C binding assay (LC-MS, compound binding rate); conditions: test compound final concentration 0.5 μM, 25° C., 1 hour
Summary of the method: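 Covalent adduct formation measured by deconvoluted intact-mass LC-MS after 1 h at 25 °C with compound at 0.5 μM final and 50 nM Gppcp-loaded KRAS G12C (residues 1-169, C51S/C80L/C118S). Buffer: TBS, 0.1 mM TCEP, 0.25 mM MgCl2, 50 μM Gppcp. Binding % = one-molecule adduct/(unbound + all adducts), binned A ≥80, B 60–80, C 40–60, D 20–40, E <20.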

[2] = biological target: T1, interaction between recombinant K-Ras4B G12C mutant protein and cRAF RAS-binding domain (cRAF-RBD) (Homo sapiens, UniProt P01116, G12C); experiment: Inhibitory activity on interaction between KRAS G12C and cRAF (Alpha technology); assay type: biochemical; conditions: GMPPNP-bound KRAS G12C incubated with compound at 25° C. for 1 hour, then cRAF-RBD; Alpha signal
T1 construct: made in house; host or cells: E. coli
Summary of the method: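 Alpha readout of cRAF-RBD (aa 50-132) binding to KRAS G12C (aa 1-169) after 1.5 h RT, following 1 h, 25° C compound preincubation with GMPPNP-bound protein (pH 7.5 Tris, 1 mM MgCl2, TCEP, Tween 20). IC50 fitted from titrations, with GDP-bound KRAS as 100% and DMSO as 0% inhibition.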

MIA PaCa-2 cells = experiment: Growth inhibition activity on KRAS-G12C mutant cell line (MIA PaCa-2), CellTiter-Glo 3D; assay type: cell-based, human; conditions: MIA PaCa-2, 3-day culture with compound
Summary of the method: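 Luminescence readout (CellTiter-Glo 3D) after 3 days of compound treatment at 37 °C, 5% CO2, 0.2% final DMSO, gave % growth inhibition versus no-compound wells, from which IC50 (nM) was derived; cells had been plated in 10% FBS RPMI1640 one day before dosing.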

SMILES	binding rate [1]	IC50 [2]	IC50 (MIA PaCa-2 cells)	IC50 (MIA PaCa-2 cells; Homo sapiens, MIA PaCa-2, 72 h)
COc1cc2c(nc(C)n2C)c(Cl)c1-c1cccn2c(C(=O)c3cc(F)c(NC(=O)/C=C/CN[C@H]4CC[C@H](OC)CC4)c(F)c3)ccc12 (single isomer, unassigned) [Example 35-1, (E)-N-(4-(8-(4-chloro-6-methoxy-1,2-dimethyl-1H-benzo[d]imidazol-5-yl)indolizine-3-carbonyl)-2,6-difluorophenyl)-4-(((1r,4r)-4-methoxycyclohexyl)amino)but-2-enamide]	A (A binding rate of 80% or more is rated “A”)	0.029 µM	0.035 µM	
COc1cc2c(nc(C)n2C)c(Cl)c1-c1cccn2c(C(=O)c3cc(F)c(NC(=O)/C=C/CN[C@H]4CC[C@H](OC)CC4)c(F)c3)ccc12 (single isomer, unassigned) [Example 35-2, (E)-N-(4-(8-(4-chloro-6-methoxy-1,2-dimethyl-1H-benzo[d]imidazol-5-yl)indolizine-3-carbonyl)-2,6-difluorophenyl)-4-(((1r,4r)-4-methoxycyclohexyl)amino)but-2-enamide]	A (A binding rate of 80% or more is rated “A”)	0.053 µM	0.073 µM	
COc1cc2c(nc(C)n2C)c(Cl)c1-c1cccn2c(C(=O)c3cc(F)c(NC(=O)/C=C/CNC(C)(C)C)c(F)c3)ccc12 (single isomer, unassigned) [Example 36-1, (E)-4-(tert-butylamino)-N-(4-(8-(4-chloro-6-methoxy-1,2-dimethyl-1H-benzo[d]imidazol-5-yl)indolizine-3-carbonyl)-2,6-difluorophenyl)but-2-enamide]	B (a binding rate of 60% or more and less than 80% is rated “B”)	0.04 µM	0.024 µM	
COc1cc2c(nc(C)n2C)c(Cl)c1-c1cccn2c(C(=O)c3cc(F)c(NC(=O)/C=C/CNC(C)(C)C)c(F)c3)ccc12 (single isomer, unassigned) [Example 36-2, (E)-4-(tert-butylamino)-N-(4-(8-(4-chloro-6-methoxy-1,2-dimethyl-1H-benzo[d]imidazol-5-yl)indolizine-3-carbonyl)-2,6-difluorophenyl)but-2-enamide]	A (A binding rate of 80% or more is rated “A”)	0.056 µM	0.06 µM	
COc1c(-c2cccn3c(C(=O)c4cc(F)c(NC(=O)/C=C/CN[C@H]5CC[C@H](OC)CC5)c(F)c4)ccc23)c(C)cc2c1nc(C)n2C (single isomer, unassigned) [Example 39-1, (E)-N-(2,6-difluoro-4-(8-(4-methoxy-1,2,6-trimethyl-1H-benzo[d]imidazol-5-yl)indolizine-3-carbonyl)phenyl)-4-(((1r,4r)-4-methoxycyclohexyl)amino)but-2-enamide]	A (A binding rate of 80% or more is rated “A”)	0.58 µM	0.35 µM	
COc1c(-c2cccn3c(C(=O)c4cc(F)c(NC(=O)/C=C/CN[C@H]5CC[C@H](OC)CC5)c(F)c4)ccc23)c(C)cc2c1nc(C)n2C (single isomer, unassigned) [Example 39-2, (E)-N-(2,6-difluoro-4-(8-(4-methoxy-1,2,6-trimethyl-1H-benzo[d]imidazol-5-yl)indolizine-3-carbonyl)phenyl)-4-(((1r,4r)-4-methoxycyclohexyl)amino)but-2-enamide]	A (A binding rate of 80% or more is rated “A”)	0.032 µM	0.044 µM	
COc1c(-c2cccn3c(C(=O)c4cc(F)c(NC(=O)/C=C/CNC(C)(C)C)c(F)c4)ccc23)c(C)cc2c1nc(C)n2C (single isomer, unassigned) [Example 40-1]	A (A binding rate of 80% or more is rated “A”)	0.34 µM	0.34 µM	
COc1c(-c2cccn3c(C(=O)c4cc(F)c(NC(=O)/C=C/CNC(C)(C)C)c(F)c4)ccc23)c(C)cc2c1nc(C)n2C (single isomer, unassigned) [Example 40-2]	A (A binding rate of 80% or more is rated “A”)	0.021 µM	0.073 µM	
COc1cc2c(ncn2C)c(Cl)c1-c1cccn2c(C(=O)c3cc(F)c(NC(=O)/C=C/CN[C@H]4CC[C@H](OC)CC4)c(F)c3)ccc12 (single isomer, unassigned) [Example 41-1, (E)-N-(4-(8-(4-chloro-6-methoxy-1-methyl-1H-benzo[d]imidazol-5-yl)indolizine-3-carbonyl)-2,6-difluorophenyl)-4-(((1r,4r)-4-methoxycyclohexyl)amino)but-2-enamide]	A (A binding rate of 80% or more is rated “A”)	0.052 µM		0.032 µM
COc1cc2c(ncn2C)c(Cl)c1-c1cccn2c(C(=O)c3cc(F)c(NC(=O)/C=C/CN[C@H]4CC[C@H](OC)CC4)c(F)c3)ccc12 (single isomer, unassigned) [Example 41-2, (E)-N-(4-(8-(4-chloro-6-methoxy-1-methyl-1H-benzo[d]imidazol-5-yl)indolizine-3-carbonyl)-2,6-difluorophenyl)-4-(((1r,4r)-4-methoxycyclohexyl)amino)but-2-enamide]	A (A binding rate of 80% or more is rated “A”)	0.074 µM	0.05 µM	
CO[C@H](C)c1nc2c(Cl)c(-c3cccn4c(C(=O)c5cc(F)c(NC(=O)/C=C/CN[C@H]6CC[C@H](OC)CC6)c(F)c5)ccc34)c(C)cc2n1C (single isomer, unassigned) [Example 47]	A (A binding rate of 80% or more is rated “A”)	0.016 µM	0.075 µM	
CO[C@H](C)c1nc2c(Cl)c(-c3cccn4c(C(=O)c5cc(F)c(NC(=O)/C=C/CN[C@H]6CC[C@H](OC)CC6)c(F)c5)ccc34)c(C)cc2n1C (single isomer, unassigned) [Example 48]	A (A binding rate of 80% or more is rated “A”)	0.11 µM	0.23 µM	
CO[C@H](C)c1nc2c(Cl)c(-c3cccn4c(C(=O)c5cc(F)c(NC(=O)/C=C/CNC(C)(C)C)c(F)c5)ccc34)c(C)cc2n1C (single isomer, unassigned) [Example 49]	A (A binding rate of 80% or more is rated “A”)	0.019 µM	0.049 µM	
CO[C@H](C)c1nc2c(Cl)c(-c3cccn4c(C(=O)c5cc(F)c(NC(=O)/C=C/CNC(C)(C)C)c(F)c5)ccc34)c(C)cc2n1C (single isomer, unassigned) [Example 50]	A (A binding rate of 80% or more is rated “A”)	0.25 µM	0.22 µM	
Cc1nc2c(Cl)c(-c3cccn4c(C(=O)c5cc(F)c(NC(=O)/C=C/CNC(C)(C)C)c(F)c5)ccc34)c(C(F)(F)F)cc2n1C (single isomer, unassigned) [Example 56-1, (E)-4-(tert-butylamino)-N-(4-(8-(4-chloro-1,2-dimethyl-6-(trifluoromethyl)-1H-benzo[d]imidazol-5-yl)indolizine-3-carbonyl)-2,6-difluorophenyl)but-2-enamide]	A (A binding rate of 80% or more is rated “A”)	0.45 µM	1.1 µM	
Cc1nc2c(Cl)c(-c3cccn4c(C(=O)c5cc(F)c(NC(=O)/C=C/CNC(C)(C)C)c(F)c5)ccc34)c(C(F)(F)F)cc2n1C (single isomer, unassigned) [Example 56-2, (E)-4-(tert-butylamino)-N-(4-(8-(4-chloro-1,2-dimethyl-6-(trifluoromethyl)-1H-benzo[d]imidazol-5-yl)indolizine-3-carbonyl)-2,6-difluorophenyl)but-2-enamide]	A (A binding rate of 80% or more is rated “A”)	0.021 µM	0.029 µM	
Cc1nc2c(Cl)c(-c3cccn4c(C(=O)c5cc(F)c(NC(=O)/C=C/CNC6CCOCC6)c(F)c5)ccc34)c(C(F)(F)F)cc2n1C (single isomer, unassigned) [Example 57-1, (E)-N-(4-(8-(4-chloro-1,2-dimethyl-6-(trifluoromethyl)-1H-benzo[d]imidazol-5-yl)indolizine-3-carbonyl)-2,6-difluorophenyl)-4-((tetrahydro-2H-pyran-4-yl)amino)but-2-enamide]	A (A binding rate of 80% or more is rated “A”)	0.043 µM	0.02 µM	
Cc1nc2c(Cl)c(-c3cccn4c(C(=O)c5cc(F)c(NC(=O)/C=C/CNC6CCOCC6)c(F)c5)ccc34)c(C(F)(F)F)cc2n1C (single isomer, unassigned) [Example 57-2, (E)-N-(4-(8-(4-chloro-1,2-dimethyl-6-(trifluoromethyl)-1H-benzo[d]imidazol-5-yl)indolizine-3-carbonyl)-2,6-difluorophenyl)-4-((tetrahydro-2H-pyran-4-yl)amino)but-2-enamide]	A (A binding rate of 80% or more is rated “A”)	0.79 µM	1.1 µM	
